Measurements from publication PMC8398847, “Isavuconazole: Thermodynamic Evaluation of Processes Sublimation, Dissolution and Partition in Pharmaceutically Relevant Media” (Molecules, 2021).
Read-outs that look alike come from different tables or passages of the source.

Experiment: Partition experiment, 1-octanol/buffer pH 7.4, shake flask
Assay type: physicochemical
Details: for logP at 24 h: 1-octanol/buffer pH 7.4, pH 7.4, 1-octanol/buffer pH 7.4, read-out: logP*O/B (mole fraction scale); for PO/B / logPO/B / sB · 10^6 (equilibrium molar concentration, buffer phase) / sO · 10^3 (equilibrium molar concentration, organic phase) / xB · 10^7 (mole fraction, buffer phase) / xo · 10^4 (mole fraction, 1-octanol phase): 1-octanol/buffer pH 7.4
Protocol: The partition coefficients in the 1-octanol/buffer pH 7.4 system were determined by the shake flask method in the temperature range 293.15–313.15 K. The total volume of the two-phase system 80 cm^3 with the ratio of the organic phase to the volume of the aqueous phase 1:1 was used. Before the experiment, both solvents were mutually saturated by stirring in a large vessel for two days. […] The flasks with the test compound were stirred for 24 h in an air thermostat until complete equilibrium was ensured, as evidenced by the absence of turbidity in each of the phases. The final drug concentrations in both immiscible phases were measured spectrophotometrically.
The partition coefficients in 1-octanol/buffer system (PO/B) were calculated as the ratio of the equilibrium molar concentrations in the organic (sO) and buffer (sB )phases:PO/B =sO/sB(9)
The value P*O/B expressed in mole fraction were determined by follow equation:P*O/B = xO/xB(10)
The standard transfer enthalpy of drug was calculated based on the experimental temperature dependence of partition coefficients using van’t Hoff method:(11) d(lnPO/B*)/dT=ΔtrH^0/RT^2 whereas the standard Gibbs energy of transfer process from the buffer to 1-octanol was evaluated:∆trG° = −RTlnP*O/B(12)
The standard transfer entropy (∆trS°) is obtained by means of relationship:∆trS° =(∆trH° − ∆trG°)/T(13)
The transfer thermodynamic functions represent the change in the enthalpy and entropy terms when one solute mole is transferred from the aqueous phase to the organic phase at infinite dilution.

[1] = transfer from buffer pH 7.4 to 1-octanol

logP at 24 h (293.15 K): 3.44 | logP at 24 h (298.15 K): 3.5 | logP at 24 h (303.15 K): 3.56 | logP at 24 h (308.15 K): 3.62 | logP at 24 h (313.15 K): 3.68 | PO/B (293.15 K): 313.71 | logPO/B (293.15 K): 2.50 | sB · 10^6 (equilibrium molar concentration, buffer phase) (293.15 K): 6.85 | sO · 10^3 (equilibrium molar concentration, organic phase) (293.15 K): 2.15 | xB · 10^7 (mole fraction, buffer phase) (293.15 K): 1.22 | xo · 10^4 (mole fraction, 1-octanol phase) (293.15 K): 3.39 | PO/B (298.15 K): 359.18 | logPO/B (298.15 K): 2.56 | sB · 10^6 (equilibrium molar concentration, buffer phase) (298.15 K): 5.98 | sO · 10^3 (equilibrium molar concentration, organic phase) (298.15 K): 2.15 | xB · 10^7 (mole fraction, buffer phase) (298.15 K): 1.07 | xo · 10^4 (mole fraction, 1-octanol phase) (298.15 K): 3.40 | PO/B (303.15 K): 413.63 | logPO/B (303.15 K): 2.62 | sB · 10^6 (equilibrium molar concentration, buffer phase) (303.15 K): 5.20 | sO · 10^3 (equilibrium molar concentration, organic phase) (303.15 K): 2.15 | xB · 10^7 (mole fraction, buffer phase) (303.15 K): 0.93 | xo · 10^4 (mole fraction, 1-octanol phase) (303.15 K): 3.42 | PO/B (308.15 K): 474.77 | logPO/B (308.15 K): 2.68 | sB · 10^6 (equilibrium molar concentration, buffer phase) (308.15 K): 4.53 | sO · 10^3 (equilibrium molar concentration, organic phase) (308.15 K): 2.15 | xB · 10^7 (mole fraction, buffer phase) (308.15 K): 0.81 | xo · 10^4 (mole fraction, 1-octanol phase) (308.15 K): 3.43 | PO/B (313.15 K): 535.22 | logPO/B (313.15 K): 2.73 | sB · 10^6 (equilibrium molar concentration, buffer phase) (313.15 K): 4.02 | sO · 10^3 (equilibrium molar concentration, organic phase) (313.15 K): 2.15 | xB · 10^7 (mole fraction, buffer phase) (313.15 K): 0.72 | xo · 10^4 (mole fraction, 1-octanol phase) (313.15 K): 3.45 | TΔtrS° [1]: TΔtrS° = 40.9 ± 1.5/kJ·mol^−1 | ΔtrG° [1]: ΔtrG° = −19.99 ± 0.4/kJ·mol^−1 | ΔtrH° [1]: ΔtrH° = 20.95 ± 0.2/kJ·mol^−1 | ΔtrS° [1]: ΔtrS° = 137.3 ± 5.2/J·mol^−1K^−1
SMILES: C[C@@H](c1nc(-c2ccc(C#N)cc2)cs1)[C@](O)(Cn1cncn1)c1cc(F)ccc1F [IVZ, Isavuconazole]
